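Values below derive from 48-hour exposures of cells grown in 96-well plates, with endpoints linearly interpolated between the two concentrations bracketing the appropriate inhibition level. GI50 marks 50% less growth.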 Calls of active or inactive are those of the source. Rule as the data show it: active = GI50 up to about 1.1 µM and inactive = higher.
Legend:
Test in all cases: NCI-60 cell line screen, 48 h
MCF7 = tested on: MCF7
OVCAR-4 = tested on: OVCAR-4
COLO 205 = tested on: COLO 205
DU-145 = tested on: DU-145
RPMI-8226 = tested on: RPMI-8226
BT-549 = tested on: BT-549
IGROV-1 = tested on: IGROV-1
SK-OV-3 = tested on: SK-OV-3
Malme-3M = tested on: Malme-3M
HOP-62 = tested on: HOP-62
U-251 = tested on: U-251
SNB-75 = tested on: SNB-75
HCT-116 = tested on: HCT-116
SN12C = tested on: SN12C
SK-MEL-5 = tested on: SK-MEL-5
T47D = tested on: T47D
MDA-MB-231 = tested on: MDA-MB-231
KM12 = tested on: KM12
MDA-N = tested on: MDA-N
SF-539 = tested on: SF-539

Measured: GI50

C[C@]12CC(c3ccccc3O1)C(C#N)C(=O)N2 (some centres undefined)
inactive: MCF7 > 100 µM | OVCAR-4 > 100 µM | COLO 205 > 100 µM | DU-145 > 100 µM | RPMI-8226 > 100 µM | BT-549 > 100 µM | IGROV-1 > 100 µM | SK-OV-3 > 100 µM | Malme-3M > 100 µM | HOP-62 > 100 µM | U-251 > 100 µM | SNB-75 > 100 µM | HCT-116 > 100 µM | SN12C > 100 µM | SK-MEL-5 > 100 µM | T47D > 100 µM | MDA-MB-231 > 100 µM | KM12 > 100 µM | MDA-N > 100 µM

O=c1[nH]c2c(C(F)(F)F)c(Cl)c(-c3ccccc3)nc2o1
inactive: MCF7 45.6 µM | OVCAR-4 19.6 µM | COLO 205 14.9 µM | DU-145 38.1 µM | BT-549 15.7 µM | IGROV-1 41.8 µM | SK-OV-3 23.6 µM | HOP-62 35.4 µM | U-251 19.3 µM | HCT-116 16.1 µM | SN12C 10.9 µM | SK-MEL-5 4.83 µM | T47D 20.2 µM | MDA-MB-231 25.1 µM | KM12 26.7 µM | MDA-N 14.8 µM

OCCSCc1cc(Cl)cc(Cl)c1O
inactive: MCF7 > 100 µM | OVCAR-4 > 100 µM | COLO 205 > 100 µM | DU-145 > 100 µM | RPMI-8226 > 100 µM | BT-549 > 100 µM | IGROV-1 > 100 µM | SK-OV-3 > 100 µM | Malme-3M > 100 µM | HOP-62 > 100 µM | U-251 > 100 µM | HCT-116 > 100 µM | SN12C > 100 µM | SK-MEL-5 > 100 µM | T47D > 100 µM | MDA-MB-231 > 100 µM | KM12 > 100 µM | MDA-N > 100 µM

CC1N[B@@-](C)(c2ccc(C(F)(F)F)cc2)OC1c1ccccc1 (some centres undefined)
inactive: MCF7 59.7 µM | OVCAR-4 > 100 µM | COLO 205 > 100 µM | DU-145 > 100 µM | RPMI-8226 34.7 µM | BT-549 > 100 µM | IGROV-1 > 100 µM | SK-OV-3 > 100 µM | Malme-3M 86.3 µM | HOP-62 > 100 µM | U-251 > 100 µM | SNB-75 32.6 µM | HCT-116 89.3 µM | SN12C > 100 µM | SK-MEL-5 87.7 µM | T47D > 100 µM | MDA-MB-231 > 100 µM | MDA-N > 100 µM

Cc1[nH]c(=O)[nH]c(=O)c1N(CCF)CCCl [FLUORODOPAN]
inactive: MCF7 256 µM | OVCAR-4 353 µM | COLO 205 394 µM | DU-145 582 µM | BT-549 344 µM | SF-539 199 µM | IGROV-1 441 µM | SK-OV-3 536 µM | Malme-3M 349 µM | HOP-62 318 µM | U-251 369 µM | HCT-116 439 µM | SK-MEL-5 196 µM | T47D 292 µM | MDA-MB-231 362 µM | KM12 429 µM | MDA-N 409 µM

CCOC(=O)c1nc2ccccc2nc1Oc1ccc(C#N)cc1
inactive: MCF7 > 100 µM | OVCAR-4 > 100 µM | COLO 205 > 100 µM | DU-145 > 100 µM | RPMI-8226 > 100 µM | BT-549 > 100 µM | SF-539 > 100 µM | IGROV-1 > 100 µM | SK-OV-3 > 100 µM | Malme-3M > 100 µM | HOP-62 > 100 µM | U-251 > 100 µM | HCT-116 > 100 µM | SN12C > 100 µM | SK-MEL-5 > 100 µM | T47D > 100 µM | MDA-MB-231 > 10 µM | KM12 > 100 µM | MDA-N > 100 µM

CC(=O)[C@@H]1[C@@H](OC(=O)CCC(C)COC2OC(CO)C(O)C(O)C2O)C[C@H]2[C@@H]3CC=C4C[C@@H](OC5OC(CO)C(OC6OC(C)C(O)C(O)C6O)C(O)C5OC5OC(C)C(O)C(O)C5O)CC[C@]4(C)[C@H]3CC[C@]12C (some centres undefined)
inactive: MCF7 > 100 µM | OVCAR-4 > 100 µM | COLO 205 > 100 µM | DU-145 > 100 µM | RPMI-8226 > 100 µM | BT-549 > 100 µM | SK-OV-3 > 100 µM | Malme-3M 52.5 µM | HOP-62 > 100 µM | U-251 > 100 µM | SNB-75 > 100 µM | HCT-116 > 100 µM | SN12C > 100 µM | SK-MEL-5 > 100 µM | T47D > 100 µM | MDA-MB-231 > 100 µM | KM12 > 100 µM | MDA-N > 100 µM

COP1(=O)OCc2cnccc2O1 (centres undefined)
inactive: MCF7 > 100 µM | OVCAR-4 > 100 µM | COLO 205 > 100 µM | RPMI-8226 > 100 µM | BT-549 > 100 µM | SF-539 > 100 µM | IGROV-1 > 100 µM | SK-OV-3 > 100 µM | Malme-3M > 100 µM | HOP-62 > 100 µM | U-251 > 100 µM | SNB-75 > 100 µM | HCT-116 > 100 µM | SN12C > 100 µM | SK-MEL-5 > 100 µM | T47D > 100 µM | MDA-MB-231 > 100 µM | KM12 > 100 µM | MDA-N > 100 µM

CCCNc1c(Cl)cc(Cl)c2[nH]c3ccccc3c(=O)c12
inactive: MCF7 28.4 µM | OVCAR-4 > 100 µM | COLO 205 42 µM | RPMI-8226 30.8 µM | BT-549 75.3 µM | SF-539 32.4 µM | IGROV-1 24.5 µM | SK-OV-3 75.9 µM | Malme-3M 43.3 µM | HOP-62 56.1 µM | U-251 37.1 µM | SNB-75 31.5 µM | HCT-116 43.6 µM | SN12C 95.9 µM | SK-MEL-5 32.7 µM | T47D > 100 µM | MDA-MB-231 77.1 µM | KM12 27.2 µM | MDA-N 50.6 µM

CC(C)(C)N1C(=O)[N-]/[N+](=C(/C(c2ccccc2)=[N+]2/[N-]C(=O)N(C(C)(C)C)C2=O)c2ccccc2)C1=O
inactive: MCF7 > 100 µM | OVCAR-4 > 100 µM | COLO 205 > 100 µM | DU-145 > 100 µM | RPMI-8226 > 100 µM | BT-549 > 100 µM | SF-539 > 100 µM | SK-OV-3 > 100 µM | U-251 > 100 µM | SNB-75 > 100 µM | HCT-116 > 100 µM | SN12C > 100 µM | SK-MEL-5 > 100 µM | T47D > 100 µM | MDA-MB-231 > 100 µM | KM12 > 100 µM | MDA-N > 100 µM

O=c1[nH]c2ccccc2nc1CBr
inactive: OVCAR-4 4.62 µM | COLO 205 5.78 µM | DU-145 19.2 µM | RPMI-8226 2.06 µM | BT-549 9.27 µM | SF-539 9.23 µM | IGROV-1 4.22 µM | SK-OV-3 21.5 µM | Malme-3M 2.74 µM | HOP-62 21.3 µM | U-251 9.98 µM | SNB-75 12.8 µM | HCT-116 8.39 µM | SN12C 9.38 µM | SK-MEL-5 10.8 µM | T47D 12.5 µM | MDA-MB-231 11.2 µM | KM12 2.56 µM | MDA-N 12 µM

From ChEMBL document CHEMBL1201862, “PubChem BioAssay data set” (2004)
